Counter-ions that a name gives are not always drawn.
Target: T1, Lot6p (Saccharomyces cerevisiae, UniProt Q07923)
T1 sequence (Q07923 1-191): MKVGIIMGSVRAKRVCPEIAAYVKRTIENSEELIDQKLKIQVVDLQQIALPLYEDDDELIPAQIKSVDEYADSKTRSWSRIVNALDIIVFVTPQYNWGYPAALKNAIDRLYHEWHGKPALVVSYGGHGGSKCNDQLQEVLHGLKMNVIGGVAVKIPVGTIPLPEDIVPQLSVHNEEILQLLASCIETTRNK
Experiment: stopped-flow oxidation of reduced enzyme at […] nm
Assay type: biochemical

| SMILES | k2 [M⁻¹ s⁻¹] |
| --- | --- |
| O=C1C=C(S(=O)(=O)O)c2ccccc2C1=O [1,2-Napthoquinone-4-sulfonic acid, Na salt] | 142000 |
| O=C1C=CC(=O)C=C1 [1,4-Benzoquinone] | 1.03e+07 |
| O=C1C=C(O)C(=O)c2ccccc21 [2-Hydroxy-1,4-naphthoquinone] | 7580 |
| COC1=C(OC)C(=O)C(C)=CC1=O [Coenzyme Q0] | 6.45e+06 |
| CC1=CC(=O)c2ccccc2C1=O [Menadione] | 677000 |
| O=C1c2ccccc2C(=O)c2c1cccc2S(=O)(=O)O [Na-anthraquinone, α-sulfonate] | 1810 |

Target: T1, Lot6p
Experiment: not given
Assay type: biochemical

| SMILES | Kd [mM] |
| --- | --- |
| NC(=O)C1=CN([C@@H]2O[C@H](COP(=O)(O)OP(=O)(O)OC[C@H]3O[C@@H](n4cnc5c(N)ncnc54)[C@H](O)[C@@H]3O)[C@@H](O)[C@H]2O)C=CC1 [NADH] | 9.6 ± 2.4 |
| NC(=O)C1=CN([C@@H]2O[C@H](COP(=O)(O)OP(=O)(O)OC[C@H]3O[C@@H](n4cnc5c(N)ncnc54)[C@H](OP(=O)(O)O)[C@@H]3O)[C@@H](O)[C@H]2O)C=CC1 [NADPH] | 12.5 ± 1.1 |
